Assay [1] has as its system Stat5. Description: Stat5 phosphorylation in K562 cells (immunoblot). In kind it is cell-based, human. The settings on record: 4 days. As for the experimental part: In order to evaluate whether the phosphate group of IST5 is critical for IST5 activity in cell-based assays, we compared the potency of IST5 (Figure 4A) to that of IST5-M (IST5 without the phosphate group) (Figure 4B) in inhibiting phosphorylation of Stat5 in PC and CML cells. CML (K562) cells and PC (CWR22Rv1) cells were cultured for 4 days with increasing concentrations of IST5 and IST5-M (Figure 4C,D). […] Collectively, these finding indicate that IST5 and IST5-M have similar efficacies in inhibiting phosphorylation of Stat5 in both CML and PC cells.
Figure 4 IST5 and the IST5-derivative lacking the phosphate group (IST5-M), both, inhibit Stat5 phosphorylation in CML and prostate cancer cell line with high efficacy. (A), chemical structure of IST5-002 (IST5). (B), chemical structure of IST5-M (IST5 without the phosphate group. (C), IST5 and IST5-M both inhibit Stat5 phosphorylation in CML cells (K562) with high efficacy. K562 cells were treated with IST5 and IST5-M for 4 days at the concentrations indicated. Whole cell lysates (WCL) were immunoblotted with anti-pYStat5 mAb, anti-Stat5 mAb and anti-actin mAb as loading control. (D), IST5 and IST5-M, both, decrease Stat5 phosphorylation in PC cells (CWR22Rv1). CWR22Rv1 cells were treated with increasing concentrations of IST5 and IST5-M for 4 days. Stat5 was immunoprecipitated (IP) followed by immunoblotting (WB) with anti-pYStat5 mAb and anti-Stat5 mAb. Whole cell lysates (WCL) were immunoblotted with anti-actin mAb as loading control.
Cell pellets were solubilized in the lysis buffer (10 mM Tris-HCl (pH 7.6), 5 mM EDTA, 50 mM sodium chloride, 30 mM sodium pyrophosphate, 50 mM sodium fluoride, 1 mM sodium orthovanadate, 1% Triton X-100, 1 mM phenylmethylsulfonyl fluoride, 5 µg/mL aprotinin, 1 µg/mL pepstatin A and 2 µg/mL leupeptin), and protein concentrations of clarified cell lysates were determined by a simplified Bradford method (Bio-Rad, Hercules, CA, USA). The whole cell lysates were immunoprecipitated with polyclonal antibodies (Table S1) followed by incubation with protein A-Sepharose beads (GE Healthcare, Chicago, IL, USA). The cell lysates and immunoprecipitated proteins were separated on 4–12% SDS-PAGE (Life Technologies, Brown Deer, WI, USA) and transferred electrophoretically to polyvinylidene fluoride membrane (Millipore). For immunoblotting, blocking buffer was tris-buffered saline and tween 20 (TBST, 0.15 M NaCl; 0.1% Tween 20; 50 mM Tris, pH 8.0) with 3% bovine serum albumin (BSA). The immunoreaction with the specific antibodies (Table S1) was detected by horseradish peroxidase-conjugated secondary antibodies followed by enhanced chemiluminescence (GE Healthcare).
(In general: Immunoblotting shows a protein as a band on a membrane.)

For assay [2], the target named is JAK1 (Homo sapiens, UniProt P23458). Description: Radiometric filtration binding cell-free kinase assay. In kind it is biochemical. Also noted: purchased Reaction Biology (JAK1/2/3, TYK2); Luceome Biotechnologies KinaseSeeker (others). Conditions: percent activity of kinase after exposure to IST5 1 µM. As to the method:
(§1) For Jak1, Jak2, Jak3 and Tyk2, a radiometric filtration binding assay was conducted by Reaction Biologicals (Malvern, PA, USA) (Table 1). This radiometric assay is a cell-free assay which is based on conventional filter-binding assays, directly measuring kinase catalytic activity toward a specific substrate. For evaluation of the activity of the other kinases, the Kinase Seeker Technology was utilized (Luceome Biotechnologies, Tucson, AZ, USA), which is a luminescence-based cell-free assay. In this assay, the reassembly of luciferase fragments is mediated by the interaction of a kinase with an active site-dependent probe. The competitive displacement of the probe by an inhibitor is measured by a change in luminescence signal. Percent activity of each kinase after exposure to IST5 (1 µM) is presented.

For assay [3], the target named is JAK2 (Homo sapiens, UniProt O60674). The description is as above. In kind it is biochemical. Conditions: percent activity of kinase after exposure to IST5 1 µM. Also noted: purchased Reaction Biology (JAK1/2/3, TYK2); Luceome Biotechnologies KinaseSeeker (others). As to the method:
as §1

Assay [4] has as its target TYK2 (Homo sapiens, UniProt P29597). The description is as above. In kind it is biochemical. Also noted: purchased Reaction Biology (JAK1/2/3, TYK2); Luceome Biotechnologies KinaseSeeker (others). Conditions: percent activity of kinase after exposure to IST5 1 µM. As for the experimental part: as §1

From PMC7724566, “Prospects for Clinical Development of Stat5 Inhibitor IST5-002: High Transcriptomic Specificity in Prostate Cancer and Low Toxicity In Vivo” (Cancers, 2020) come the findings set out here.

As a reminder, the IC50 is the concentration that inhibits the measured activity by half.

Chain of JAK1 (P23458 whole entry, the tested form may be a part): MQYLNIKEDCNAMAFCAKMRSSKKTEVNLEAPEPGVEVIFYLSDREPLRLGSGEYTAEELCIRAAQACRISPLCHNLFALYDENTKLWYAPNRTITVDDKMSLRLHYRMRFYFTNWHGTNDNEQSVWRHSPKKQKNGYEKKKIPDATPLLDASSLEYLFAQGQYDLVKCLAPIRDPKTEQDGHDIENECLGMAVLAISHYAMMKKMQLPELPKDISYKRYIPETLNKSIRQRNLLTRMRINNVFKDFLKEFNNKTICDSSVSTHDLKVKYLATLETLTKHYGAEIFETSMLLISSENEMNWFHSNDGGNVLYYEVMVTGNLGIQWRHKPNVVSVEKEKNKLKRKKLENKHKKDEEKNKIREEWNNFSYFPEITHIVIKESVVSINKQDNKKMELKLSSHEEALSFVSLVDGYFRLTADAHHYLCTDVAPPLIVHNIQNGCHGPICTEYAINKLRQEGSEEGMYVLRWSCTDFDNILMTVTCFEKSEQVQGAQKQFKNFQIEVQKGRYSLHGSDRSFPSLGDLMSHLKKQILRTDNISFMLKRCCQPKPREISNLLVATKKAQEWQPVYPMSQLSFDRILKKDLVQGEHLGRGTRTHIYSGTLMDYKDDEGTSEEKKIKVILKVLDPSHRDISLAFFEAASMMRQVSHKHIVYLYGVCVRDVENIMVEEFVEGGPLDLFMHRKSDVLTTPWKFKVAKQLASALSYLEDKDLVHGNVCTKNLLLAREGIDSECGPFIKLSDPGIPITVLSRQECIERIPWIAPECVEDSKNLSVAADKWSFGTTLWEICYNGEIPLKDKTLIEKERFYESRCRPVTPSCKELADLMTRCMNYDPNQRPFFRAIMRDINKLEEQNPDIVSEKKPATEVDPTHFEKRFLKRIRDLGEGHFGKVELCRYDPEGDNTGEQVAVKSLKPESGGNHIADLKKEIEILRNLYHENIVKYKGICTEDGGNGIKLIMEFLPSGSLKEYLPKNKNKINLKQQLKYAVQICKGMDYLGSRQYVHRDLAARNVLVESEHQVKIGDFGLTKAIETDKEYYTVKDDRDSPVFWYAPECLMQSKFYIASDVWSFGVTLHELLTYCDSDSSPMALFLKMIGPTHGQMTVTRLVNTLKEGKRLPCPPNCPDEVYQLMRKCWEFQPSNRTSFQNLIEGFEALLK
Chain of JAK2 (O60674 whole entry): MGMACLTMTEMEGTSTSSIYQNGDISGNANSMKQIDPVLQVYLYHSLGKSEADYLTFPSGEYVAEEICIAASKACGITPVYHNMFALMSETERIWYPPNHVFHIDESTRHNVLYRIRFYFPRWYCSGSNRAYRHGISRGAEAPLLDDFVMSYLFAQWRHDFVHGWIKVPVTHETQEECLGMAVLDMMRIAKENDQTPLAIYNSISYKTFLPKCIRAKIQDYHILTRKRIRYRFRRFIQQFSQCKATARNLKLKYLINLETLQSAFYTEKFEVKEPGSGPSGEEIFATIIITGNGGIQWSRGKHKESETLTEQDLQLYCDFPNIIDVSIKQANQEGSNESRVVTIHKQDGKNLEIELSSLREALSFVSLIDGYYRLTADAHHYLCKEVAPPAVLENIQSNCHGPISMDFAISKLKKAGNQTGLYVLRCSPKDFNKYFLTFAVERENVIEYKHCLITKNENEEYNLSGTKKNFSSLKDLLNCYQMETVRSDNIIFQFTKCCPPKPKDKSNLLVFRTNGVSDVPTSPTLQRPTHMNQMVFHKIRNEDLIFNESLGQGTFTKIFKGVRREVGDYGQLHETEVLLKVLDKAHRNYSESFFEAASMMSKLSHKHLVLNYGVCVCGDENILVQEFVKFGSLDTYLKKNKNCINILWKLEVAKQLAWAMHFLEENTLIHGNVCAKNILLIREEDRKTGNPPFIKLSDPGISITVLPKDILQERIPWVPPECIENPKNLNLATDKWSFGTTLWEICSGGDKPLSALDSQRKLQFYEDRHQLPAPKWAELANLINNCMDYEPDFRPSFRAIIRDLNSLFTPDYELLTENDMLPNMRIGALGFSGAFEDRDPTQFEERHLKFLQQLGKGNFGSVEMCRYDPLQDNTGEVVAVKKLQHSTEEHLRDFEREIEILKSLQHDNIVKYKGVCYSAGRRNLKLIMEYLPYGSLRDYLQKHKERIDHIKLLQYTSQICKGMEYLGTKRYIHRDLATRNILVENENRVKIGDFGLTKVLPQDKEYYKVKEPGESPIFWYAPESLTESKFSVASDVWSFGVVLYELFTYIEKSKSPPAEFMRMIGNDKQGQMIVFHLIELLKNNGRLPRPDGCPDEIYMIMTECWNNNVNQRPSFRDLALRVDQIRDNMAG
Chain of TYK2 (P29597 whole entry): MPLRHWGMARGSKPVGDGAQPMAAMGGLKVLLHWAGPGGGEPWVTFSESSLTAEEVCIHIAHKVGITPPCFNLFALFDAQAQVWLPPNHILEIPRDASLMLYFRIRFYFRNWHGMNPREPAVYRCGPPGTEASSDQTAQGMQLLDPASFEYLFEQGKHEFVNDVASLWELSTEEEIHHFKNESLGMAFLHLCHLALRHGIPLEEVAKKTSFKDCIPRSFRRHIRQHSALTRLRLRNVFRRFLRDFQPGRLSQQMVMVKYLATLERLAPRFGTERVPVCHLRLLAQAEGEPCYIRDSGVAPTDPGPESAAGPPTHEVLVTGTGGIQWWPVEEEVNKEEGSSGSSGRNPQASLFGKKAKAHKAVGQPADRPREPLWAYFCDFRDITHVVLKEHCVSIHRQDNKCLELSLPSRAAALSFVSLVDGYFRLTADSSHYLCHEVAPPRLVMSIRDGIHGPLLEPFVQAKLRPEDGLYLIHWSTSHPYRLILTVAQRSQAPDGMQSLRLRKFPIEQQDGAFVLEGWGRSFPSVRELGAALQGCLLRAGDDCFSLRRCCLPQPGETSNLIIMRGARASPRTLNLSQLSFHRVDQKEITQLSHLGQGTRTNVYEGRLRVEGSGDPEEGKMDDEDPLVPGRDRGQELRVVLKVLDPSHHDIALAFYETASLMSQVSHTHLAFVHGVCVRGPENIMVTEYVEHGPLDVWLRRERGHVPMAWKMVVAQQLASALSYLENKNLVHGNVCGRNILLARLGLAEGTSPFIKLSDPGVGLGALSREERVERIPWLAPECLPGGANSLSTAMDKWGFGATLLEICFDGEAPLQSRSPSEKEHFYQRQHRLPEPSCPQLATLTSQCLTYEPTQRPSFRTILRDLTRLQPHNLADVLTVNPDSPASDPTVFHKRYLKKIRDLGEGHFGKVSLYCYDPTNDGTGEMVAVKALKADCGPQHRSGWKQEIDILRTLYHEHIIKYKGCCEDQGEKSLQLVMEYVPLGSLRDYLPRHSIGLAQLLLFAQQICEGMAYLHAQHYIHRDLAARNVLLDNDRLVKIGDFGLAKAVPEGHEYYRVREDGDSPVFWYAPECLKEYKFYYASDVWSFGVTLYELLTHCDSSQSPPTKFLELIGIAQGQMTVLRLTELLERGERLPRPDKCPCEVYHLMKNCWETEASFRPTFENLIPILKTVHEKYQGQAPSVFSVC

On to `O=P(O)(O)OCC1OC(n2cnc3c(NCc4ccccc4)ncnc32)C(O)C1O` (centres unmarked) [IST5], for which the “inhibition of Stat5 phosphorylation” value in assay [1] (2 µM, K562 cells) is reported as 75–90%. Moreover, the IC50 in assay [1] (read-out: IC50, inhibition of Stat5 phosphorylation, K562 CML cells) is ~1100 nM. For the same compound, the Activity in assay [2] was found to be 96.2%; in assay [3], 95.4%; in assay [4], 100.0%.
